Source: patent US20200191798A1, “DOSE DETERMINATION FOR IMMUNOTHERAPEUTIC AGENTS” (BIONTECH RNA PHARMACEUTICALS GMBH, priority 2016, published 2020)

Test system: cytokines in the blood
Assay: Plasma cytokines after intravenous infusion of TLR-7 agonists in cynomolgus monkeys
Assay type: in vivo, cynomolgus monkey
Details: thirty minute i.v. infusion
Excerpt: The objective of the following study was to observe the effect of the in vivo administration of different amounts of small molecule agonists of TLR-7, N-(4-(4-amino-2-(2-methoxyethyl)-1H-imidazo[4,5-c]quinolin-1-yl)butyl)-N-(tetrahydro-2H-pyran-4-yl)acetamide (SM1) and N-(4-(4-amino-2-ethyl-1H-imidazo[4,5-c]quinolin-1-yl)butyl)-N-(1,1-dioxidothietan-3-yl)acetamide (SM3), on expression of various cytokines in the blood in a cynomolgus monkey model. The various cytokines whose expression was determined include interferon alpha, interleukin 1 receptor antagonist, interleukins 4, 6, 8, 10, 12, 15, 18, monocyte chemoattractant protein 1, granulocyte-colony stimulating factor, macrophage inflammatory protein 1 beta, tumor necrosis factor alpha, and vascular endothelial growth factor.
A defined single dose of one of the agonist compounds was administered intravenously to cynomolgus monkeys in a thirty minute infusion. […]
Cytokines levels were determined using an interferon alpha Elisa kit (e.g., VeriKine™ Cynomolgus/Rhesus IFNα ELISA Kit) and a Luminex® non-human primate cytokine/chemokine kit (e.g., Milliplex Non-Human Primate Cytokine/Chemokine Magnetic Premixed 23 Plex Panel), in accordance to the manufacturers' instructions. […]

Compound | cytokine levels in plasma (FIGS. 10a-10kk) (male and female cynomolgus monkeys, 30, 100 or 300 μg/kg, then at 14 days 1, 3 or 10 mg/kg) | cytokine levels in plasma (FIGS. 11a-11m) (male cynomolgus monkeys, 300 μg/kg, 1, 3 and 10 mg/kg)
COCCc1nc2c(N)nc3ccccc3c2n1CCCCN(C(C)=O)C1CCOCC1 [SM1, N-(4-(4-amino-2-(2-methoxyethyl)-1H-imidazo[4,5-c]quinolin-1-yl)butyl)-N-(tetrahydro-2H-pyran-4-yl)acetamide] | production of various cytokines in a highly individual manner | 
CCc1nc2c(N)nc3ccccc3c2n1CCCCN(C(C)=O)C1CS(=O)(=O)C1 [SM3, N-(4-(4-amino-2-ethyl-1H-imidazo[4,5-c]quinolin-1-yl)butyl)-N-(1,1-dioxidothietan-3-yl)acetamide] |  | production of various cytokines in a highly individual manner
